This assay has as its target T1, GRK2 (Homo sapiens, UniProt P25098).
T1 sequence (P25098 1-689): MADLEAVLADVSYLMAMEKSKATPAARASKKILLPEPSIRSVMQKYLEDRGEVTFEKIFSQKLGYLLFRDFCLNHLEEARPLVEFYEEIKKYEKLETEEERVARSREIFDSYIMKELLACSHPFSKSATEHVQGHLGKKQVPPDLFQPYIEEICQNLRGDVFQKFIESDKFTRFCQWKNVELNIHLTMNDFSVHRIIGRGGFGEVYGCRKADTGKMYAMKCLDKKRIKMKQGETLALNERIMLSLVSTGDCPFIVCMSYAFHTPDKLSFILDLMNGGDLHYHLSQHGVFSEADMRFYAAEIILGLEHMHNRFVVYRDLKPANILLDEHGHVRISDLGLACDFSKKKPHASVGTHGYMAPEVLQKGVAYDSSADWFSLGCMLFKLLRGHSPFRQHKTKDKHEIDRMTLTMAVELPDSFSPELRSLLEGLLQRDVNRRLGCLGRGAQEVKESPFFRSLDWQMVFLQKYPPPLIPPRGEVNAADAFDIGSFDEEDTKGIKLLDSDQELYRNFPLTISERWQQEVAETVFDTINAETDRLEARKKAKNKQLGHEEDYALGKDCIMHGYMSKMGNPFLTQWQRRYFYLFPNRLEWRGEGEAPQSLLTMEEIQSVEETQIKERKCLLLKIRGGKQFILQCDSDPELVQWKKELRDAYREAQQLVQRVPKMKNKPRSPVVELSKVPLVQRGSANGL
The experiment in a line: hGRK2 LANCE Ultra In Vitro Assay. The class given is biochemical. Conditions: 10 nM GRK2, 30 or 600 μM ATP (not stated which), multiple measurements listed individually. On the procedure:
hGRK2 LANCE Ultra In Vitro Assay
G-protein coupled receptor kinases (GR Kinases) desensitize activated G-protein coupled receptors (GPCRs), by phosphorylation of cytoplasmic loops or carboxyl-terminal tails of GPCRs. GRK2 is one of the 6 different GR kinases and is implicated in heart failure and diabetes.
This assay is sensitive and requires as low as 10 nM enzyme, in a total volume of 10 μL. In addition, the ATP concentration can be varied over a broad range, without interfering with the assay or changing the assay condition. […] Testing inhibitors routinely at both high and low ATP concentrations also enables identification of potential non-ATP competitive inhibitors.
Paroxetine was used as the reference compound in this assay.
Test compounds were dissolved in DMSO at 1 mM and were 3-fold serial diluted. The compound DMSO solutions were then added (100 nL) into a plate well using an acoustic dispenser. To each well was then added 20 nM GRK2 (5 μL) in assay buffer (20 mM HEPES, pH 7.5, 10 mM MgCl2, 0.001% Tween-20®). The plate was sealed and centrifuged at 1000 rpm for 1 min. The plate and wells containing a mixture of GRK2 and test compound were incubated at ambient temperature for 30 min (prior to initializing the enzymatic reaction).
Enzyme reactions were initiated by the addition of 4.9 μL Substrates/Eu-Ab mix to each well. […] Final concentrations of reagents in the assays were as follows: 20 mM HEPES, pH 7.5; 10 mM MgCl2; 0.001% Tween-20® (w/v); 30 or 600 μM ATP; 200 nM ULight-peptide; 4 nM Eu-Ab; 10 nM GRK2; and 1% DMSO.
The plates were sealed and centrifuged at 1000 rpm for 1 min. For reactions at low ATP concentration (30 μM), reaction mixtures were incubated at ambient temperature for 120 min. For reactions at high ATP concentration (600 μM), reaction mixtures were incubated at ambient temperature for 60 min.
The enzyme reactions were quenched by addition of 10 μL of 12 mM EDTA in 1× LANCE detection solution to each well. The plates were then incubated at ambient temperature for 30 min. Time-resolved fluorescence signal of reactions were read on an EnVision or PHERAstar plate reader with the following parameters: Excitation wavelength=337 nm; emission wavelength (donor)=620 nm; emission wavelength (acceptor)=665 nm.
The raw HTRF data were converted to % active as follows:
% active=(sample−NC)/(PC−NC)*100
where NC is the mean of negative control (reactions without GRK2), and PC is the mean of positive control (reactions with GRK2 but without inhibitor). IC50 values were determined from a 4-parameter fit, using the following equation:
Y=Bottom+(Top−Bottom)/(1+10^((Log IC50−X)*Hill slope))
where X=log10 of the compound concentration.
A general note: Time-resolved FRET reads energy transfer from a long-lived donor to a nearby acceptor.

Where [1] appears, read: Biological Example 1 GRK2 Lancer IC50 (μM).

Where two headings read alike, the source gives them in different places. Where only a bound is given, the exact number is not on record here.

For `COc1cccc(C(CCC(=O)O)N2Cc3ccc(-c4cn[nH]c4)cc3C2=O)c1` (stereo not shown) [Compound 117, 4-(3-methoxyphenyl)-4-(1-oxo-6-(1H-pyrazol-4-yl)isoindolin-2-yl)butanoic acid], it took 0.404 µM to reach half-maximal inhibition under setting [1] (IC50).
On the same count and under the same terms, next, `CCOc1cccc([C@H](C(=O)OC)N2Cc3ccc(-c4ccncc4)cc3C2=O)c1` [Compound 76]: over 20 µM; `COc1cccc(CN2C(=O)c3cc(-c4cn[nH]c4)ccc3C23CCC2NC(=O)OC23)c1` (stereo not shown) [Compound 150, 2′-(3-methoxybenzyl)-5′-(1H-pyrazol-4-yl)-3a,4,5,6a-tetrahydrospiro[cyclopenta[d]oxazole-6,1′-isoindoline]-2,3′(3H)-dione]: 0.013 µM; `COc1cccc(CN2C(=O)c3cc(-c4cn[nH]c4)ccc3C23CCCC3)c1` [Compound 42, 2′-(3-methoxybenzyl)-5′-(1H-pyrazol-4-yl)spiro[cyclopentane-1,1′-isoindolin]-3′-one]: 0.006 µM.
Still for that read-out and setting: to `COc1cccc(C(COCCO)N2Cc3ccc(-c4cn[nH]c4)cc3C2=O)c1` (stereo not shown) [Compound 63, 2-(2-(2-Hydroxyethoxy)-1-(3-methoxyphenyl)ethyl)-6-(1H-pyrazol-4-yl)isoindolin-1-one] belongs 0.008 µM; to `CCOc1cccc(C(C(=O)O)N2Cc3ccc(-c4ccncc4)cc3C2=O)c1` (stereo not shown) [Compound 77], over 20 µM.
Consider `COc1cccc([C@@H](C)N2Cc3c(cc(-c4cn[nH]c4)cc3C3CCNC3)C2=O)c1` (stereo partly drawn) [Compound 144, 2-((R)-1-(3-methoxyphenyl)ethyl)-6-(1H-pyrazol-4-yl)-4-(pyrrolidin-3-yl)isoindolin-1-one], for which the IC50 (as a rule, the midpoint of a concentration-inhibition curve) (read-out: Biological Example 1 GRK2 Lancer IC50) was 0.007 µM.
`CCOc1cccc(CN2C(=O)c3cc(-c4cn[nH]c4)ccc3C2CC#N)c1` (stereo not shown) [Compound 65, 2-(2-(3-ethoxybenzyl)-3-oxo-5-(1H-pyrazol-4-yl)isoindolin-1-yl)acetonitrile] gave a half-inhibitory concentration (IC50) under setting [1] of 0.039 µM.
The same measure, in the same setting: to `COc1cccc([C@@H](C)N2Cc3c(cc(-c4cn[nH]c4)cc3-c3cncnc3)C2=O)c1` [Compound 130, 2-[(1R)-1-(3-methoxyphenyl)ethyl]-6-(1H-pyrazol-4-yl)-4-pyrimidin-5-yl-isoindolin-1-one] belongs under 0.005 µM.
With `COc1cccc([C@@H](C)N2Cc3c(cc(-c4cn[nH]c4)cc3-c3cccnc3)C2=O)c1` [Compound 124, (R)-2-(1-(3-methoxyphenyl)ethyl)-6-(1H-pyrazol-4-yl)-4-(pyridin-3-yl)isoindolin-1-one], inhibition under setting [1] was half-maximal at 0.005 µM (IC50).
Same read-out and setting: to `O=C(N[C@H]1C[C@H]2CC[C@@H]1C2)c1cccc(CN2Cc3ccc(-c4cn[nH]c4)cc3C2=O)c1` [Compound 128] belongs under 0.005 µM; to `COc1cccc([C@@H](C)N2C(=O)c3cc(-c4cn[nH]c4)ccc3C23CCCC3)c1` [Compound 122, (R)-2′-(1-(3-methoxyphenyl)ethyl)-5′-(1H-pyrazol-4-yl)spiro[cyclopentane-1,1′-isoindolin]-3′-one], 1.18 µM.
Turning to `COc1cccc(CN2Cc3cc(F)c(-c4cn[nH]c4)cc3C2=O)c1` [Compound 35, 5-fluoro-2-[(3-methoxyphenyl)methyl]-6-(1H-pyrazol-4-yl)isoindolin-1-one], under setting [1], the midpoint of inhibition, the IC50, lay at 0.005 µM.
Still for that read-out and setting: to `COc1cccc(CN2C(=O)c3cc(-c4cn[nH]c4)ccc3C23CCC(C(N)=O)C3)c1` (stereo not shown) [Compound 108, 2′-(3-methoxybenzyl)-3′-oxo-5′-(1H-pyrazol-4-yl)spiro[cyclopentane-1,1′-isoindoline]-3-carboxamide] belongs 0.004 µM; to `COc1cccc(C(CO)N2C(=O)c3cc(-c4cn[nH]c4)ccc3C23CCCC3)c1` (stereo not shown) [Compound 79, 2′-(2-hydroxy-1-(3-methoxyphenyl)ethyl)-5′-(1H-pyrazol-4-yl)spiro[cyclopentane-1,1′-isoindolin]-3′-one], 0.03 µM; to `COc1cccc(C(COCC(N)=O)N2Cc3ccc(-c4cn[nH]c4)cc3C2=O)c1` (stereo not shown) [Compound 62, 2-(2-(3-Methoxyphenyl)-2-(1-oxo-6-(1H-pyrazol-4-yl)isoindolin-2-yl)ethoxy)acetamide], 0.007 µM.
As for `COc1cccc(C(CO)N2Cc3ccc(-c4cn[nH]c4)cc3C2=O)c1` (single isomer, unassigned) [Compound 113, 2-[(1S*)-2-hydroxy-1-(3-methoxyphenyl)ethyl]-6-(1H-pyrazol-4-yl)isoindolin-1-one], the IC50 under setting [1] worked out at 0.003 µM.
The same measure, in the same setting: to `COCC(c1cccc(OC)c1)N1Cc2ccc(-c3cn[nH]c3)cc2C1=O` (stereo not shown) [Compound 59, 2-(2-methoxy-1-(3-methoxyphenyl)ethyl)-6-(1H-pyrazol-4-yl)isoindolin-1-one] belongs 0.009 µM.
Same read-out and setting: next, `COc1cccc(CN2C(=O)c3cc(-c4cn[nH]c4)ccc3C23CCCCC3)c1` [Compound 81, 2′-(3-methoxybenzyl)-5′-(1H-pyrazol-4-yl)spiro[cyclohexane-1,1′-isoindolin]-3′-one]: 0.011 µM.
On the same count and under the same terms, next, `CCOc1cccc(CN2C(=O)c3cc(-n4cn[nH]c4=O)ccc3C2(C)C)c1` [Compound 45, 2-(3-ethoxybenzyl)-3,3-dimethyl-6-(5-oxo-1,5-dihydro-4H-1,2,4-triazol-4-yl)isoindolin-1-one]: 1.62 µM; `COc1cccc([C@@H](C)N2Cc3ccc(-n4cn[nH]c4=O)cc3C2=O)c1` [Compound 40, (R)-2-(1-(3-methoxyphenyl)ethyl)-6-(5-oxo-1,5-dihydro-4H-1,2,4-triazol-4-yl)isoindolin-1-one]: 0.115 µM.
`COC(=O)NC1CCCC12c1ccc(-c3cn[nH]c3)cc1C(=O)N2Cc1cccc(OC)c1` (stereo not shown) [Compound 115, Methyl (2′-(3-methoxybenzyl)-3′-oxo-5′-(1H-pyrazol-4-yl)spiro[cyclopentane-1,1′-isoindolin]-2-yl)carbamate] showed an IC50 under setting [1] of 0.177 µM.
Regarding `COc1cccc(C(CO)N2Cc3c(cc(-c4cn[nH]c4)cc3-c3cccnc3)C2=O)c1` (stereo not shown) [Compound 142, 2-(2-hydroxy-1-(3-methoxyphenyl)ethyl)-6-(1H-pyrazol-4-yl)-4-(pyridin-3-yl)isoindolin-1-one], the IC50 under setting [1] worked out at 0.008 µM.
The same measure, in the same setting: to `O=C(NC1CC2CCC1C2)c1cccc(CN2Cc3ccc(-c4cn[nH]c4)cc3C2=O)c1` (stereo not shown) [Compound 174] belongs 0.003 µM; to `COc1cccc(CN2Cc3cc(F)c(-c4ccnc(N)n4)cc3C2=O)c1` [Compound 36], 0.241 µM; to `COc1cccc([C@@H](C)N2Cc3c(cc(-c4cn[nH]c4)cc3-c3cc(C)nc(C)c3)C2=O)c1` [Compound 132, (R)-4-(2,6-dimethylpyridin-4-yl)-2-(1-(3-methoxyphenyl)ethyl)-6-(1H-pyrazol-4-yl)isoindolin-1-one], 0.005 µM.
Still for that read-out and setting: to `COc1cccc(CN2Cc3ccc(-n4cn[nH]c4=O)cc3C2=O)c1` [Compound 44, 2-(3-methoxybenzyl)-6-(5-oxo-1,5-dihydro-4H-1,2,4-triazol-4-yl)isoindolin-1-one] belongs 0.382 µM; to `Cc1ccc(CN2Cc3ccc(-c4cn[nH]c4)cc3C2=O)s1` [Compound 27], 0.324 µM.
